Test results: patent US20070037887A1, “Blockade of mtor to prevent a hormonal adaptive response” (University of Virginia Patent Foundation, priority 2003, published 2007)

Key:
[1] = biological target: T1, mTOR (Rattus norvegicus, UniProt P42346); test: Immune complex assay of mTOR activity, compound added to extracts or immune complexes; type: biochemical; settings: for PHAS-I kinase activity of AU1-mTOR: extracts incubated with increasing concentrations
T1 construct: expressed in transfected cells; host or cells: 293T
Protocol: 293T cells were transfected with expression vectors for AU1-epitope tagged mTOR, HA-tagged raptor, and HA-tagged mLST8. After 24 h, the overexpressed mTOR was immunoprecipitated with AU1 antibodies, and immune complexes were incubated with increasing concentrations of FTS in a reaction mixture containing 2 mM [γ^32P] ATP (250 μCi/ml), 20 mM MnCl2, and 0.1 mg/ml purified recombinant histidine-tagged PHAS-1. After fifteen minutes the reaction was stopped by adding SDS sample buffer, and samples were subjected to SDS-PAGE. The amount of ^32P incorporated into PHAS-I was determined and expressed as a percentage of that incorporated in the absence of FTS. Mean values±the half the range of two experiments are presented.
(§1) 293T cells were transfected with pcDNA3 alone (Vec.) or with a combination of pcDNA3AU1-mTOR, pcDNA33HA-Raptor, and pcDNA33HA-mLST8. Extracts of the cells were incubated with increasing concentrations of FTS before AU1-mTOR was immunoprecipated. Samples of the immune complexes were incubated with [γ-^32P]ATP and recombinant [His^6]PHAS-I, then subjected to SDS-PAGE and transferred to an immobilon membrane. After obtaining a phosphorimage of the membrane to detect ^32P-PHAS-I, the membrane was immunoblotted with PThr^36/45 antibodies. Other samples of the immune complexes were subjected to SDS-PAGE and immunoblots were prepared with antibodies to the HA epitope or to mTOR (see FIG. 13A). Extracts of nontransfected 293T cells were incubated with increasing concentrations of FTS before mTOR was immunoprecipated with mTAb1. A control immunoprecipitation was conducted using nonimmune IgG (NI). Immune complexes were subjected to SDS-PAGE and immunoblots were prepared with antibodies to mLST8, mTOR, and raptor.
(§2) Samples of extracts from 293T cells overexpressing AU1-mTOR, HA-raptor, and HA-mLST8 were incubated for 1 h with increasing concentrations of FTS (●, ▴, ▪) or GTS (∘, Δ, □) before immunoprecipitations were conducted with anti-AU1 antibodies. mTOR kinase activity (●, ∘) was determined by measuring ^32P incorporation into [His^6]PHAS-I in immune complex kinases assays performed with [γ-^32P]ATP (see FIG. 14A). The relative amounts of HA-raptor (▴, Δ) and HA-mLST8 (▪, □) that coimmunoprecipitated with AU1-mTOR were determined after immunoblotting with anti-HA antibodies (see FIG. 14B). The results (mean values+S.E. from 5 experiments) are expressed as percentages of the mTOR activity (FIG. 14A) or coimmunoprecipitating proteins (FIG. 14B) from samples incubated without FTS or GTS, and have been corrected for the amounts of AU1-mTOR immunoprecipitated.
(§3) 293T cells were transfected with pcDNA3 alone (Vec.) or with a combination of pcDNA3AU1-mTOR, pcDNA33HARaptor, and pcDNA33HA-mLST8. AU1-mTOR was immunoprecipitated and samples of the washed immune complexes were at incubated […] for 30 min with no inhibitors or with the following: caffeine (1 mM), FTS (50 μM), LY294002 (10 μM), rapamycin (1 μM) plus FKBP12 (10 μM), and 1 μM wortmannin. To prevent destruction of wortmannin, incubations were conducted in the absence of thiol reducing agents. Samples of the immune complexes were incubated for 10 min with 10 mM MnCl2, 1 mM [γ-^32P]ATP, and 50 μg/ml [His^6]PHAS-I to assess mTOR activity. Other samples were rinsed twice, subjected to SDS-PAGE, and immunoblotted with anti-HA and anti-AU1 antibodies to determine the amounts of HA-raptor and HA-mLST8 associated with AU1-mTOR. The relative amounts of ^32P incorporated into PHAS-I were determined by phosphorimaging (see FIG. 15B).

[2] = biological target: T1, mTOR; test: Immune complex assay of mTOR activity after incubating 293T cells with compound; type: cell-based; settings: for mTOR activity: 293T cells incubated with increasing concentrations
Protocol: FIGS. 12A & 12B represent data showing the effects of incubating cells with increasing concentrations of FTS and GTS on mTOR activity and mTOR association with raptor and mLST8. AU1-mTOR, HA-raptor, and HAmLST8 were overexpressed in 293T cells. The cells were then incubated for 1 h with increasing concentrations of FTS (●, ▴, ▪) or GTS (∘, Δ, □) before extracts were prepared. Immunoprecipitations were then conducted with anti-AU1 antibodies. mTOR kinase activity (●, ∘) was determined by measuring ^32P incorporation into [His^6]PHAS-I in immune complex kinases assays performed with [γ-^32P]ATP. The relative amounts of HA-raptor (▴, Δ) and HA-mLST8 (▪, □) that coimmunoprecipitated with AU1-mTOR were determined after immunoblotting with anti-HA antibodies. The results (mean values±S.E. from 3 experiments) are expressed as percentages of the mTOR activity (FIG. 12A) or coimmunoprecipitating proteins (FIG. 12B) from samples incubated without FTS or GTS, and have been corrected for the amounts of AU1-mTOR immunoprecipitated.
FIG. 12A presents results of immune complex kinases assays with AU1-mTOR from extracts of 293T cells that had been incubated with increasing concentrations of FTS.
Immune complex assay of mTOR activity—AU1-mTOR was immunoprecipitated by using anti-AU1 antibody bound to protein G-agarose beads as described previously (McMahon, et al., (2002) Mol. Cell. Biol. 22, 7428-7438). Endogenous mTOR was immunoprecipitated in the same manner, except that mTAb1 was used instead of anti-AU1 antibody. To measure kinase activity, exhaustively washed immune complexes were suspended in 20 μl of Buffer A (50 mM NaCl, 0.1 mM EGTA, 1 mM dithiothreitol (DTT), […], 10 mM Na-HEPES, and 50 mM β-glycerophosphate, pH 7.4.). The kinase reactions were initiated by adding 20 μl of Buffer A supplemented with 2 mM [γ-^32P]ATP, 20 mM MnCl2 and 40 μg/ml of [His^6]PHAS-I. In experiments in which the effects of wortmannin were investigated, DTT was omitted from the reactions, and [His^6]PHAS-I that had been reduced and alkylated with N-ethylmaleimide was used as substrate. Reactions were terminated after 10 min at 30° by adding SDS sample buffer. Samples were subjected to SDS-PAGE and the relative amounts of ^32P incorporated into [His^6]PHAS-I were determined.

[3] = biological target: T2, mTOR-raptor complex (Rattus norvegicus, UniProt P42346+Q8N122); test: Coimmunoprecipitation of raptor with mTOR, compound added to cell extracts or immune complexes; type: binding; settings: for amount of HA-raptor that coimmunoprecipitated with AU1-mTOR: extracts incubated with increasing concentrations
T2 construct: rows headed: amount of HA-raptor that coimmunoprecipitated with AU1-mTOR; other: extracts incubated with increasing concentrations; amount of HA-raptor that coimmunoprecipitated with AU1-mTOR; other: overexpressed in 293T cells, increasing concentrati; half maximal effect on raptor dissociation from mTOR; other: AU1-mTOR and HA-raptor overexpressed in 293T cells, 1 h; association of AU1-mTOR and HA-rapto
Protocol: as §1, §2, §3

[4] = FTS 50 μM, comparison with other mTOR inhibitors

CC(C)=CCC/C(C)=C/CC/C(C)=C/CSc1ccccc1C(=O)O [FTS, farnesylthiosalicylic acid]
concentration at which the effect on mTOR kinase activity could be seen [1]: 25 µM
concentration of maximal effect on mTOR kinase activity [1]: 100 µM
mTOR activity [1, 4]: decreased
PHAS-I kinase activity of AU1-mTOR [1]: progressively decreased
concentrations needed to inhibit mTOR activity in vitro relative to intact cells ([1]; extracts vs intact cells): Approximately four times lower
ability of mTOR to phosphorylate a substrate specific to mTOR ([1]; recombinant mTOR immunoprecipitated from transfected cells): completely blocked
IC50 ([2]; 293T cells incubated 1 h, read-out: half maximal effect on inhibition of AU1-mTOR activity): 20 to 30 µM
mTOR activity [2]: stable decrease in mTOR activity
association of AU1-mTOR and HA-raptor [3, 4]: decreased
amount of HA-raptor that coimmunoprecipitated with AU1-mTOR [3]: decreased

CC(C)=CCC/C(C)=C/CSc1ccccc1C(=O)O [GTS, S-geranylthiosalicylic acid, reference compound]
PHAS-I kinase activity of AU1-mTOR [1]: progressive decreases
concentrations for effects on AU1-mTOR activity and AU1-mTOR/HA-raptor association relative to FTS ([1]; extracts of transfected cells): approximately ten times higher
mTOR activity [2]: slightly decreased
amount of HA-raptor that coimmunoprecipitated with AU1-mTOR [3]: progressive decreases
